Reference: patent US7524851B2 (Robert Bosch Gesellschaft fur Medizinische Forschung (RBMF), priority 2003, dated 2009)

Key:
[1] = test system: lamina propria mononuclear cells; assay: TUNEL assay for apoptotic lamina propria mononuclear cells in IBD patients; assay type: in vivo, human
Text: FIG. 3. […] (a) LPMCs were isolated and stimulated with anti-CD2/CD28 plus IL-2 in the presence or absence of 6-MP for 5 days followed by FACS analysis. […] Data represent mean values±SEM from eight patients with IBD per group. […] Data are representative of 5-13 patients per group. Magnification, ×20 (bar=100 μm) (ce) and ×40 (bar=50 μm) (f-h). (i) Quantification of the percentage of apoptotic, TUNEL-positive LPMCs in patients with IBD receiving 6-MP as compared with untreated control patients. […] Data are mean values±SEM of 5-13 patients per group.

caspase-3 = assay: Fluorometric protease assay, caspase-3 activity in T lymphocytes; assay type: cell-based, human; conditions: CD3/CD28/rIL-2 stimulated T cells, 5 days
Method: (§1) Caspase-3 proteolytic activity was determined at day 5 by the caspase-3/CPP 32 fluorometric protease assay (Bio Source; Worcester, Mass., USA) according to the manufacturer's protocol. Caspase-8 and caspase-9 proteolytic activity were assessed in parallel by the corresponding fluorometric protease assays (Bio Source).

caspase-8 = assay: Fluorometric protease assay, caspase-8 activity in T lymphocytes; assay type: cell-based, human; conditions: CD3/CD28/rIL-2 stimulated T cells, 5 days; on average
Method: as §1

NF-κB p50/p65 = assay: NF-κB electrophoretic mobility shift assay; assay type: cell-based, human; conditions: EMSA
Method: Isolation of nuclear proteins: T lymphocytes were washed twice in cold PBS and resuspended in 500 μl of buffer A (10 mM HEPES, 1.5 mM MgCl2, 19 mM KCl, 0.5 mM PMSF, 1 mM DTT) followed by addition of 20 μl of Triton X-100 (Sigma-Aldrich) and incubation on ice for 5 minutes. Cells were centrifuged for 10 minutes at 4° C., followed by the resuspension of the nuclear pellet in buffer C (20 mM HEPES, 1.5 mM MgCl2, 0.2 mM EDTA, 25% glycerol, 0.5 mM PMSF, 1 mM DTT). Finally, the nuclei were homogenized using mini stir bars for 1 hour at 4° C. followed by centrifugation at 15,000 rpm for 15 minutes at 4° C. The concentration of nuclear proteins in supernatants was assessed using the Bio-Rad Protein Assay.
Electrophoretic mobility shift assays: Electrophoretic mobility shift assays (EMSAs) were performed as described in Atreya et al., supra. Oligonucleotides for EMSA were obtained from Santa Cruz Biotech (Heidelberg, Germany). The sequences were as follows: NF-κB, 5′-[sequence]-3′ (SEQ ID NO: 1) and 3′-[sequence]-5′ (SEQ ID NO: 2); and SP-1,5′-[sequence]-3′ (SEQ ID NO: 3) and 3′-[sequence]-5′ (SEQ ID NO: 4). Oligonucleotides were end labeled with [^32P]γ-ATP (>5000 Ci/mmol; Amersham; Arlington Heights, Ill., USA) using T4 polynucleotide kinase (New England Biolabs; Beverly, Mass., USA). […]

IκB = IκB phosphorylation and expression (Western blot); assay type: cell-based, human; conditions: 3 days
Method: The cells were then washed in PBS, resuspended in 1 ml of T40E10N150 buffer (40 mM Tris-HCl [pH 7.9], 10 mM EDTA [pH 8.0], 150 mM NaCl), put on ice for 5 minutes, and centrifuged for 4 minutes at 4° C. at 1,000 rpm. The cell pellet was then resuspended on ice in 70 μl of buffer (10 mM HEPES [pH 8.0], 400 mM NaCl, 0.1 mM EDTA, 5% glycerol, 1 mM DTT, 1 mM PMSF) and centrifuged at 15,000 rpm for 30 minutes at 4° C. The protein concentrations in supernatants were determined with the Bio-Rad Protein Assay (Bio-Rad; Munich, Germany).
Western blots: Equal amounts of extract (30 μg) were added to 8 μl of electrophoresis sample buffer (Firma Roth; Karlsruhe, Germany). After boiling, the extracts were loaded on 15% SDS-PAGE gels and electrophoretically separated. Proteins were transferred to nitrocellulose membranes, and detection was performed with the ECL Western blotting analysis system (Amersham). […]

bcl-xL mRNA = conditions: anti-CD3- plus anti-CD28-activated T lymphocytes
Method: The mRNA of T cells was extracted at the indicated time points using the Tri-reagent (Sigma-Aldrich) according to the manufacturer's protocol. In brief, the cell pellet was lysed in 1 ml of Tri-reagent before addition of 200 μl of chloroform (Sigma-Aldrich; Steinheim, Germany). Each sample was gently mixed before incubation (for 5 minutes at 20° C.) and centrifugation (12,000 g for 15 minutes at 4° C.). The aqueous phase was transferred to a fresh tube, and 0.5 ml of isopropanol (Sigma-Aldrich) was added. Samples were allowed to stand for 5 minutes at room temperature before centrifugation at 12,000 g (for 10 minutes at 4° C.). The supernatants were removed, and the RNA pellet was washed in 75% ethanol.
Gene arrays: mRNA from T lymphocytes was analyzed by the human apoptosis expression array (R&D) as follows. To generate radiolabeled cDNA, 4 μl of human apoptosis-specific primers (R&D) were added to 4 μg of the isolated mRNA, heated in a thermal cycler at 90° C. for 2 minutes, and incubated at 42° C. for 180 minutes in the presence of reverse transcriptase buffer (50 mM Tris-HCl, 8 mM MgCl2, 30 mM KCl, 1 mM DTT), 333 μM dATP, 333 μM dGTP, 333 μM dTTP, 1.67 μM dCTP, 20 U of RNasin, 20 μCi of ^32P-labeled dCTP (Amersham; Freiburg, Germany), and 50 U of AMV reverse transcriptase. […]

Rac1 = conditions: primary T cells upon azathioprine treatment
[2] = all 47 CD patients
Method: Blood Sampling: Blood samples from patients were collected into EDTA tubes and the packed red blood cells (RBCs) were isolated by centrifugation within 6 hours after blood drawing. The RBCs were immediately frozen at −80° C. until analysis.
6-thioguanine nucleotides (6-TGN) and the methylated metabolites S-methyl-mercaptopurine ribonucleotides (6-MMPR) and S-methyl 6-thioguanosine nucleotides (MTGN) were quantified by a high-performance liquid chromatographic (HPLC) assay as described in Herrlinger et al., Aliment Pharmacol Ther. 19:1269-1276 (2004).
The concentrations of 6-thioguanosine 5′-mono-, di-, and triphosphate (TGMP, TGDP, and TGTP, respectively) were determined separately by the method described in Example 2 above. […] The 5′-phosphates were isolated, extracted, and oxidized as described by Rabel et al., Anal. Biochem. 224:315-322 (1995) with slight modifications. HPLC separation was achieved by reversed phase HPLC on a C18 column with phosphate buffer (20 mM, pH 6.8) and 5 mM tetrabutylammonium hydrogen sulfate/acetonitrile 84:16 (v/v) as the mobile phase. Using fluorescence detection, quantification of 6-thioguanosine nucleotides was performed at concentration ranges of 25 to 400 pmol/100 μL RBC for TGTP, 10 to 100 pmol/100 μL for TGDP, and 10 to 50 pmol/100 μL RBC for TGMP.

[3] = after oral administration and absorption; non-enzymatic attack by sulfhydryl-containing compounds; cited from earlier work

caspase-3 activity (caspase-3) | induction of caspase-8 (caspase-8) | TGMP levels in RBC [2] | Structure (SMILES) | number of apoptotic cells ([1]; 6-MP-resistant patients with IBD) | number of apoptotic lamina propria mononuclear cells ([1]; successful 6-MP treatment vs untreated patients with IBD, P<0.01) | nuclear expression of the p65 subunit of NF-κB (NF-κB p50/p65) | CD28-induced activation of NF-κB p50/p65 (NF-κB p50/p65; nuclear proteins after 3 days) | IκB phosphorylation (IκB) | IκB protein expression levels (IκB) | bcl-xL mRNA expression (bcl-xL mRNA) | mRNA expression of other genes such as IL-2R, TACI, and GAPDH (bcl-xL mRNA) | 6-TG detected in Rac1 pull-downs (Rac1) | conversion to 6-MP [3]
marked induction | less pronounced | – | Sc1ncnc2nc[nH]c12 [6-MP, 6-mercaptopurine] | no increase | significant increase | downregulated | suppressed | suppressed | unchanged | – | – | – | –
– | – | only detectable in traces | Cn1cnc([N+](=O)[O-])c1Sc1ncnc2nc[nH]c12 [azathioprine, Azathioprine] | – | – | – | – | – | – | strongly suppressed | not affected | approximately 120 pg of 6-TG per microgram | approximately 90%
